Source: patent US10336759B2, “Salts and processes of preparing a PI3K inhibitor” (Incyte Corporation, priority 2015, dated 2019)

Assays:
JAK1 = JAK1 (Homo sapiens (Human), UniProt P23458); assay: Assay A, JAK1 IC50 at 1 mM ATP; assay type: biochemical; details: method of Assay A at 1 mM ATP; #3 data for enantiomer 1, #14 data for enantiomer 2
JAK2 = JAK2 (Homo sapiens (Human), UniProt O60674); assay: Assay A, JAK2 versus JAK1 (ratio); assay type: biochemical; details: ratio of IC50s, Assay A at 1 mM ATP
Sequence of JAK2 (O60674 whole entry, species assumed): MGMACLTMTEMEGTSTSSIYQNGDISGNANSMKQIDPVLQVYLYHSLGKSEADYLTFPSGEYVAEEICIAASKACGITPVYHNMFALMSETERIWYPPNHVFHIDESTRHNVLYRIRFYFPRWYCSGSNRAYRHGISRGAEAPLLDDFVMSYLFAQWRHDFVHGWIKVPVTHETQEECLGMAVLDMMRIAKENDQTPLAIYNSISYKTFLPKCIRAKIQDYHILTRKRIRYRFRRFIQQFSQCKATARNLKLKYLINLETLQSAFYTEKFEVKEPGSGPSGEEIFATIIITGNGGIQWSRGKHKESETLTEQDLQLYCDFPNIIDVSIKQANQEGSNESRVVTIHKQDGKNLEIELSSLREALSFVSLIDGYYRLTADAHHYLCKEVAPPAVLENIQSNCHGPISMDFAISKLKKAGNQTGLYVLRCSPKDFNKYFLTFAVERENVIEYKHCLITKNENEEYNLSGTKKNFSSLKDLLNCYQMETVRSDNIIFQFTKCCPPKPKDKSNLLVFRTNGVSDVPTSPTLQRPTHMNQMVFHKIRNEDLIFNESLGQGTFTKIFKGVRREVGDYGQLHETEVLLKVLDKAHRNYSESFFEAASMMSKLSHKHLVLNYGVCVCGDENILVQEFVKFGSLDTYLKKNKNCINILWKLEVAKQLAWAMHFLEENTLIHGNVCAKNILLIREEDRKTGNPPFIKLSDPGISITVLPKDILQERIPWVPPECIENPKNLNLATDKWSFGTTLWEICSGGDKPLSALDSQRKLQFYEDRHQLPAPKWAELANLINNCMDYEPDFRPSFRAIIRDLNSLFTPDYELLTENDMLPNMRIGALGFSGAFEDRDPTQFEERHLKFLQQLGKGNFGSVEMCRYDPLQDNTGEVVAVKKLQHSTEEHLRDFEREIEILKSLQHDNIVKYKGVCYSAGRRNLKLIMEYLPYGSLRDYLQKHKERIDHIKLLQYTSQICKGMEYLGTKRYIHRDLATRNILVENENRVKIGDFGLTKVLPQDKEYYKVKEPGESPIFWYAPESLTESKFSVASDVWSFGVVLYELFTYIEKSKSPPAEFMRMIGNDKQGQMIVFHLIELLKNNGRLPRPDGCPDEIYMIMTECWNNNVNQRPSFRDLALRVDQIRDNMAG

Sequence of JAK1 (P23458 whole entry, species assumed): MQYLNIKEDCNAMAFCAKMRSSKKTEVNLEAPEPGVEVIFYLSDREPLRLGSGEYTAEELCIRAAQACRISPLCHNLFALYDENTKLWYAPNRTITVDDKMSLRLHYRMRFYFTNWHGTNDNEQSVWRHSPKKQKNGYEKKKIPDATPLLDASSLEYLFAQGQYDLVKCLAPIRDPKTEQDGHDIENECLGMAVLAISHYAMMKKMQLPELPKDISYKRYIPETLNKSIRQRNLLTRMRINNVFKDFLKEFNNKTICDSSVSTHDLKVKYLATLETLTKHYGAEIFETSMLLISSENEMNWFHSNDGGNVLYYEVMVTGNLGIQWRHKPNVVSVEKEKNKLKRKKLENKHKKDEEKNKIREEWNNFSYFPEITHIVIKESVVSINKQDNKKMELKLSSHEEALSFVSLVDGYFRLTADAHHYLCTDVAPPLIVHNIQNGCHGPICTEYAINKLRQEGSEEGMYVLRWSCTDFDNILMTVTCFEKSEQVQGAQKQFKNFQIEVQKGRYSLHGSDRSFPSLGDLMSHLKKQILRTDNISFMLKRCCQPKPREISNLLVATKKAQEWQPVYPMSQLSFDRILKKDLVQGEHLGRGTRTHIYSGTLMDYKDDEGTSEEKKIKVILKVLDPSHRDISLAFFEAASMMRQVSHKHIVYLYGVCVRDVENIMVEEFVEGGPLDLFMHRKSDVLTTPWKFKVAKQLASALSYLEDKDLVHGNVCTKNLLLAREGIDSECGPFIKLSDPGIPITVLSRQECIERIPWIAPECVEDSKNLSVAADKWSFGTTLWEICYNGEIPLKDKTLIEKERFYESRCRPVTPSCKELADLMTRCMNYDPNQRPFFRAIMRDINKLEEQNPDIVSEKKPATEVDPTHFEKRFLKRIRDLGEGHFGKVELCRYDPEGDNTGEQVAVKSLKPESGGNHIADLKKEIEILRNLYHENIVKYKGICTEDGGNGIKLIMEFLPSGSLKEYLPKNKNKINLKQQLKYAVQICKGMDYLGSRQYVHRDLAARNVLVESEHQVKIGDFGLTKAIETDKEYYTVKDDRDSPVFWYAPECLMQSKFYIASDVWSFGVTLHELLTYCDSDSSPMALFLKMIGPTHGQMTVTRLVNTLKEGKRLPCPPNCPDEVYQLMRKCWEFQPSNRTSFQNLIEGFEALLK

IC50 (JAK1) [nM]	JAK2/JAK1 (JAK2)	SMILES
< 10	>10	N#CCC(C1CCN(c2cccc(Cl)n2)C1)n1cc(-c2ncnc3[nH]ccc23)cn1 (single isomer, unassigned) [Example 3, 3-[1-(6-chloropyridin-2-yl)pyrrolidin-3-yl]-3-[4-(7H-pyrrolo[2,3-d]pyrimidin-4-yl)-1H-pyrazol-1-yl]propanenitrile]
< 10	>10	N#CCC(C1CCN(c2nc3cccnc3o2)C1)n1cc(-c2ncnc3[nH]ccc23)cn1 (centres unmarked) [Example 4, 3-(1-[1,3]oxazolo[5,4-b]pyridin-2-ylpyrrolidin-3-yl)-3-[4-(7H-pyrrolo[2,3-. d]pyrimidin-4-yl)-1H-pyrazol-1-yl]propanenitrile]
< 10	>10	C[C@@H](O)CNCc1cc(OC2CCN([C@H]3C[C@](CC#N)(n4cc(-c5ncnc6[nH]ccc56)cn4)C3)CC2)nc(C(F)(F)F)c1 [Example 24, {trans-3-(4-{[4-({[(2R)-2-hydroxypropyl]amino}methyl)-6-(trifluoromethyl)pyridin-2-yl]oxy}piperidin-1-yl)-1-[4-(7H-pyrrolo[2,3-d]pyrimidin-4-yl)-1H-pyrazol-1-yl]cyclobutyl}acetonitrile]
< 10	>10	N#CCC(CN1CCN(C(=O)c2ccc(C#N)cc2F)CC1)n1ccc(-c2ncnc3[nH]ccc23)c1 (centres unmarked) [Example 6, 4-[(4-{3-cyano-2-[3-(7H-pyrrolo[2,3-d]pyrimidin-4-yl)-1H-pyrrol-1-yl]propyl}piperazin-1-yl)carbonyl]-3-fluorobenzonitrile]
< 10	>10	N#CC[C@]1(n2cc(-c3ncnc4[nH]ccc34)cn2)C[C@H](N2CCC(Oc3cc(CCO)cc(C(F)(F)F)n3)CC2)C1 [Example 26, {trans-3-(4-{[4-(2-hydroxyethyl)-6-(trifluoromethyl)pyridin-2-yl]oxy}piperidin-1-yl)-1-[4-(7H-pyrrolo[2,3-d]pyrimidin-4-yl)-1H-pyrazol-1-yl]cyclobutyl}acetonitrile]
< 10	>10	C[C@H](NC(=O)c1cc(F)c(N2CC(CC#N)(n3cc(-c4ncnc5[nH]ccc45)cn3)C2)cc1F)C(F)(F)F [Example 16, 4-{3-(cyanomethyl)-3-[4-(7H-pyrrolo[2,3-d]pyrimidin-4-yl)-1H-pyrazol-1-yl]azetidin-1-yl}-2,5-difluoro-N-[(1S)-2,2,2-trifluoro-1-methylethyl]benzamide]
< 10	>10	N#CCC1(n2cc(-c3ncnc4[nH]ccc34)cn2)CN(C2CCN(C(=O)c3ccnc(C(F)(F)F)c3F)CC2)C1 [Example 7, {1-{1-[3-Fluoro-2-(trifluoromethyl)isonicotinoyl]piperidin-4-yl}-3-[4-(7H-pyrrolo[2,3-d]pyrimidin-4-yl)-1H-pyrazol-1-yl]azetidin-3-yl}acetonitrile]
< 10	>10	N#CCC1(n2cc(-c3ncnc4[nH]ccc34)cn2)CN(C2CCN(C(=O)Nc3ccc(F)cc3C(F)(F)F)CC2)C1 [Example 8, 4-{3-(Cyanomethyl)-3-[4-(7H-pyrrolo[2,3-d]pyrimidin-4-yl)-1H-pyrazol-1-yl]azetidin-1-yl}-N-[4-fluoro-2-(trifluoromethyl)phenyl] piperidine-1-carboxamide]
< 10	>10	CC(C)(O)c1cc(O[C@H]2CC[C@@H](N3CC(CC#N)(n4cc(-c5ncnc6[nH]ccc56)cn4)C3)CC2)nc(C(F)(F)F)c1 [Example 20, {1-(cis-4-{[4-(1-hydroxy-1-methylethyl)-6-(trifluoromethyl)pyridin-2-yl]oxy}cyclohexyl)-3-[4-(7H-pyrrolo[2,3-d]pyrimidin-4-yl)-1H-pyrazol-1-yl]azetidin-3-yl}acetonitrile]
< 10	>10	CCNCc1cc(O[C@H]2CC[C@@H](N3CC(CC#N)(n4cc(-c5ncnc6[nH]ccc56)cn4)C3)CC2)nc(C(F)(F)F)c1 [Example 19, {1-(cis-4-{[4-[(ethylamino)methyl]-6-(trifluoromethyl)pyridin-2-yl]oxy}cyclohexyl)-3-[4-(7H-pyrrolo[2,3-d]pyrimidin-4-yl)-1H-pyrazol-1-yl]lazetidin-3-yl}acetonitrile]
< 10	>10	C[C@@H](CO)NCc1cc(OC2CCN([C@H]3C[C@](CC#N)(n4cc(-c5ncnc6[nH]ccc56)cn4)C3)CC2)nc(C(F)(F)F)c1 [Example 23, {trans-3-(4-{[4-({[(1S)-2-hydroxy-1-methylethyl]amino}methyl)-6-(trifluoromethyl)pyridin-2-yl]oxy}piperidin-1-yl)-1-[4-(7H-pyrrolo[2,3-d]pyrimidin-4-yl)-1H-pyrazol-1-yl]cyclobutyl}acetonitrile]
< 10	>10	N#CCC1(n2cc(-c3ncnc4[nH]ccc34)cn2)CN([C@H]2CC[C@@H](Oc3cc(CN4CC[C@@H](O)C4)cc(C(F)(F)F)n3)CC2)C1 [Example 21]
< 10	>10	N#CC[C@]1(n2cc(-c3ncnc4[nH]ccc34)cn2)C[C@H](N2CCC(Oc3cc(CN4CC(O)C4)cc(C(F)(F)F)n3)CC2)C1 [Example 11, {trans-3-(4-{[4-[(3-hydroxyazetidin-1-yl)methyl]-6-(trifluoromethyl)pyridin-2-yl]oxy}piperidin-1-yl)-1-[4-(7H-pyrrolo[2,3-d]pyrimidin-4-yl)-1H-pyrazol-1-yl]cyclobutyl}acetonitrile]
< 10	>10	N#CCC(CN1CCN(C(=O)c2ccc(C#N)cc2F)CC1)n1cc(-c2ncnc3[nH]ccc23)cn1 (centres unmarked) [Example 5, 4-[(4-{3-cyano-2-[4-(7H-pyrrolo[2,3-d]pyrimidin-4-yl)-1H-pyrazol-1-yl)propyl}piperazin-1-yl)carbonyl]-3-fluorobenzonitrile]
< 10	>10	N#CCC1(n2cc(-c3ncnc4[nH]ccc34)cn2)CN(C2CCN(C(=O)c3ccnc(C(F)(F)F)n3)CC2)C1 [Example 9, [3-[4-(7H-pyrrolo[2,3-d]pyrimidin-4-yl)-1H-pyrazol-1-yl]-1-(1-{[2,- (trifluoromethyl)pyrimidin-4-yl]carbonyl}piperidin-4-yl)azetidin-3-yl]acetonitrile]
< 10	>10	N#CCC1(n2cc(-c3ncnc4[nH]ccc34)cn2)CN([C@H]2CC[C@@H](Oc3cc(CCO)nc(C(F)(F)F)n3)CC2)C1 [Example 18, {1-(cis-4-{[6-(2-hydroxyethyl)-2-(trifluoromethyl)pyrimidin-4-yl]oxy}cyclohexyl)-3-[4-(7H-pyrrolo[2,3-d]pyrimidin-4-yl)-1H-pyrazol-1-yl]azetidin-3-yl}acetonitrile]
< 10	>10	N#CC[C@]1(n2cc(-c3ncnc4[nH]ccc34)cn2)C[C@H](N2CCC(Oc3cc(CN4CCC[C@@H]4CO)cc(C(F)(F)F)n3)CC2)C1 [Example 13, {trans-3-(4-{[4-{[(2R)-2-(hydroxymethyl)pyrrolidin-1-yl]methyl}-6-(trifluoromethyl)pyridin-2-yl]oxy}piperidin-1-yl)-1-[4-(7H-pyrrolo[2,3-d]pyrimidin-4-yl)-1H-pyrazol-1-yl]cyclobutyl}acetonitrile]

SMILES	IC50 (JAK1) [nM]	JAK2/JAK1 (JAK2)
C[C@@H](O)c1nc2cnc3ccsc3c2n1[C@H]1CC[C@H](CC#N)OC1 [Example 1, ((2R,5S)-5-{2-[(1R)-1-hydroxyethyl]-1H-imidazo[4,5-d]thieno[3,2-b]pyridin-1-yl}tetrahydro-2H-pyran-2-yl)acetonitrile]		>10
